Laboratory results as given in ChEMBL document CHEMBL4411286, “Discovery of new potent hits against intracellular Trypanosoma cruzi by QSAR-based virtual screening” (Eur J Med Chem, 2019).

Columns and labels:
[1] = Selectivity index, ratio of CC50 for human U2OS cells to EC50 for Trypanosoma cruzi Y infected in human U2OS cells; assay type: toxicity, cell-based; conditions: read-out: Ratio CC50/EC50
[2] = Cytotoxicity against human U2OS cells assessed as reduction in cell viability after 96 hrs; assay type: cell-based
Trypanosoma cruzi = assay: Antimicrobial activity against Trypanosoma cruzi Y infected in human U2OS cells after 96 hrs by HCS assay; assay type: functional, organism-based

Row | SMILES | selectivity ratio [1] | CC50 at 96 h ([2]; read-out: CC50) [µM] | CC50 at 96 h ([2]; read-out: pCC50 (converted)) [µM] | EC50 (Trypanosoma cruzi; read-out: EC50) [µM] | EC50 (Trypanosoma cruzi; read-out: pEC50 (converted)) [µM]
1 | CC(C)COc1ccc(CN(Cc2ccncc2)S(=O)(=O)c2ccc(F)cc2F)cc1 | > 274 | > 200 | 200 | 0.7 | 0.724
2 | Cc1nccn1-c1ccc(Cn2ccnc2-c2cc3ccccc3[nH]c2=O)cc1 | 43.9 | 52.9 | – | 1.2 | –
3 | N#Cc1ccc(-c2ccc(OCC(=O)N3CCN(c4cccc(Cl)c4)CC3)cc2)cc1 | – | > 200 | – | > 200 | –
4 | COc1ccc(N2CCN(C(=O)CN(Cc3ccccc3C)S(=O)(=O)c3ccc(Cl)cc3)CC2)cc1 | 27.7 | 73.9 | 74.1 | 2.7 | 2.69
5 | c1cncc(-c2nc(-c3cnccn3)n[nH]2)c1 | 0.4 | 1.5 | – | 3.4 | –
6 | CC(Oc1ccc(-c2ccccc2)cc1)C(=O)Nc1ccc(S(=O)(=O)Nc2nccs2)cc1 (centres undefined) | – | > 200 | – | > 200 | –
7 | Clc1ccc(-c2csc(-c3cccnc3)n2)cc1 | > 48 | > 200 | – | 4.2 | 4.17
8 | O=C(NC(Cn1ccnc1)c1ccccc1)c1ccc(-n2cnnn2)cc1 (centres undefined) | 137 | 33.6 | 35.5 | 0.3 | 0.257
9 | COc1ccc(N2CCN(C(=O)COc3ccc(C4CCCCC4)cc3)CC2)c([N+](=O)[O-])c1 | 1.3 | 49.6 | – | 38.3 | –
10 | O=C(COc1ccc(-c2ccccc2)cc1)N1CCN(S(=O)(=O)c2ccc(F)cc2)CC1 | – | > 200 | 200 | > 200 | > 200
11 | Cc1ccccc1-c1noc(-c2cccnc2)n1 | > 10.8 | > 200 | – | 18.6 | 18.6
12 | Cc1ccc(-n2c(SCC(=O)N3CCN(c4ccccc4)CC3)nnc2-c2ccncc2)cc1Cl | 3 | 21.1 | – | 7 | 6.92
13 | COc1ccc(C2CC(=O)C3=C(C2)NC(C)=C(C(=O)OCCc2ccccc2)C3c2ccncc2)cc1 (centres undefined) | 46.5 | 19.3 | – | 0.4 | 0.417
14 | Cn1c(SCC(=O)N2CCN(c3ccccc3)CC2)nnc1-c1ccc(Br)cc1 | – | > 200 | – | > 200 | > 200
15 | O=C(Cn1ccnc1[N+](=O)[O-])NCc1ccccc1 [BENZNIDAZOLE] | > 128 | > 200 | – | 3.1 | –
16 | COc1ccc2c(c1)cc(C(=O)NC(Cn1ccnc1)c1ccccc1)n2C (centres undefined) | – | 0.62 | 0.617 | 13.3 | 13.2
17 | O=C(NC(Cn1ccnc1)c1ccccc1)c1cccc(-n2cccn2)c1 (centres undefined) | 46.3 | 11.8 | 11.7 | 0.3 | 0.257
18 | O=C(N/C(=C/c1cccnc1)c1nc2ccccc2[nH]1)c1cccc(Br)c1 | 2.5 | 47.4 | – | 18.9 | –
19 | Cc1nnc(-c2cccc(-c3ccnc4[nH]ccc34)c2)s1 | < 0.6 | 127 | – | > 200 | –
20 | CC(C)COc1ccc(CN(Cc2ccncc2)S(=O)(=O)c2ccc(F)c(F)c2)cc1 | 30.6 | 11.5 | 11.5 | 0.4 | 0.38

Row | SMILES | selectivity ratio [1] | CC50 at 96 h ([2]; read-out: CC50) [µM] | CC50 at 96 h ([2]; read-out: pCC50 (converted)) [µM] | EC50 (Trypanosoma cruzi; read-out: EC50) [µM] | EC50 (Trypanosoma cruzi; read-out: pEC50 (converted)) [µM]
21 | O=C(CSc1nc(-c2ccncc2)n[nH]1)N1CCN(c2ccccc2)CC1 | > 9.9 | > 200 | – | 20.1 | 20
22 | COc1ccc(S(=O)(=O)N(Cc2ccncc2)Cc2ccc(OCC(C)C)cc2)cc1OC | 45.7 | 21.7 | 21.9 | 0.5 | 0.479
23 | c1cncc(-c2nc(-c3cccs3)no2)c1 | < 0.3 | 66.3 | – | > 200 | > 200
24 | Cc1ncsc1CCC(=O)NC(Cn1ccnc1)c1ccccc1 (centres undefined) | – | > 200 | – | > 200 | –
25 | Nc1ncc(-c2nc(-c3cccnn3)no2)c(-c2ccccc2)n1 | < 0.5 | 99.7 | – | > 200 | –
26 | Cc1nnc(SCC(=O)N2c3ccccc3CC2C)n1-c1ccccc1 (centres undefined) | 4.2 | 155 | – | 36.9 | 37.2
27 | COc1cccc(-c2noc(-c3cccnc3)n2)c1 | 1.2 | 106 | – | 86 | 85.1
28 | CC1=C(C(=O)OCCc2ccccc2)C(c2ccncc2)C2=C(CC(c3ccccc3)CC2=O)N1 (centres undefined) | – | > 200 | – | > 200 | > 200
29 | Cn1c(SCC(=O)N2CCN(c3ccccc3F)CC2)nnc1-c1cccnc1 | < 1 | 198 | – | > 200 | > 200
30 | CC1Cc2ccccc2N1C(=O)CSc1nnnn1-c1ccccc1 (centres undefined) | > 1.8 | > 200 | – | 109 | 110
31 | Cc1ccc(N2C(=O)C(CC(=O)Nc3ccccc3)N(Cc3cccnc3)C2=O)cc1 (centres undefined) | > 1 | > 200 | – | 191 | –
32 | Oc1ccccc1-c1n[nH]c(-c2ccccn2)n1 | – | > 200 | – | > 200 | –
33 | Clc1ccc(Cc2nn3c(CN4CCN(c5ccccc5)CC4)nnc3s2)cc1 | – | > 200 | – | > 200 | –
34 | O=C(CC(Nc1ccc2ccccc2c1)c1ccncc1)c1ccc(Br)cc1 (centres undefined) | > 258 | > 200 | – | 0.8 | –
35 | O=C(NC(Cn1ccnc1)c1ccccc1)c1csc(-c2cccs2)n1 (centres undefined) | – | > 200 | 200 | > 200 | > 200
36 | CC(=O)Nc1ccc(Cl)c(C(=O)NC(Cn2ccnc2)c2ccccc2)c1 (centres undefined) | > 72.8 | > 200 | – | 2.7 | –
37 | C=CCSc1nc(-c2ccc(OC)cc2)n[nH]1 | 1.3 | 195 | – | 149 | –
38 | CC(C)COc1ccc(CN(Cc2ccncc2)S(=O)(=O)c2cccc(F)c2)cc1 | – | > 200 | 200 | > 200 | > 200
39 | Cc1ccc(-c2csc(-c3cccnc3)n2)cc1C | 15.1 | 40.8 | – | 2.7 | 2.69
